The results in this text go back to ChEMBL document CHEMBL1806436, “Structure--activity relationship studies of novel arylsulfonylimidazolidinones for their anticancer activity” (Eur J Med Chem, 2011).

As usually defined, the IC50 is the concentration that gives 50% inhibition. Usually TGI stands for how far tumour growth fell short of that in controls.

Data set [1] is described as follows: Anticancer activity against human KATO III cells by MTT assay. It is filed as functional, cell-based, KATO III cell.
In data set [2] the test system is COLO 205. The experiment in a line: Anticancer activity against human COLO205 cells by MTT assay. It is filed as functional, cell-based. (In general: Tetrazolium dyes change colour on reduction, which living cells bring about.)
The test system of data set [3] is A549. The experiment in a line: Anticancer activity against human A549 cells by MTT assay. Type of data set: functional, cell-based.
The subject of data set [4] is SK-OV-3. The experiment in a line: Anticancer activity against human SKOV3 cells by MTT assay. It is filed as functional, cell-based.
Data set [5] concerns K562. The experiment in a line: Anticancer activity against human K562 cells by MTT assay. It is filed as functional, cell-based.
A short description of data set [6]: Anticancer activity against mouse P388D1 cells by MTT assay. It is filed as functional, cell-based.
In data set [7] the test system is Mus musculus. The experiment in a line: Toxicity in human NCI-H23 cells xenografted BALB/c nu/nu mouse assessed as change in body weight at 65 mg/kg, po administered every alternative day for 12 days measured on day 20 (reference value: 1.2 g). Particulars: in vivo, 288 h. Type of data set: organism-based. On the set-up: dose 65 mg/kg, route oral. In general terms: Xenograft models place foreign cells or tissue in a host animal.

Data set [8] deals with SW-620. The experiment in a line: Anticancer activity against human SW620 cells xenografted in BALB/c nu/nu mouse assessed as tumor growth inhibition at 65 mg/kg, po every alternative day for 12 days measured on day 19. Type of data set: functional. To be noted: read-out: TGI.
Data set [9] has as its system Mus musculus. The experiment in a line: Toxicity in human SW620 cells xenografted BALB/c nu/nu mouse assessed as change in body weight at 65 mg/kg, po administered every alternative day for 12 days measured on day 20 (reference value: 1.1 g). Type of data set: organism-based, SW-620. On the set-up: dose 65 mg/kg, route oral. Particulars: in vivo, 288 h.
Data set [10] deals with NCI-H23. The experiment in a line: Anticancer activity against human NCI-H23 cells xenografted in BALB/c nu/nu mouse assessed as tumor growth inhibition at 65 mg/kg, po every alternative day for 12 days measured on day 19. Type of data set: functional. To be noted: read-out: TGI.
In data set [11] the test system is SW-620. The experiment in a line: Anticancer activity against human SW620 cells xenografted in BALB/c nu/nu mouse assessed as tumor growth inhibition at 1 mg/kg, ip qd for 11 days followed by 2 mg/kg, ip qd on day 12 to day 14 and 3 mg/kg, ip qd on day 15 to day 18 measured on day 19. Type of data set: functional.
Data set [12] relates to NCI-H23. The experiment in a line: Anticancer activity against human NCI-H23 cells xenografted in BALB/c nu/nu mouse assessed as tumor growth inhibition at 1 mg/kg, ip qd for 11 days followed by 2 mg/kg, ip qd on day 12 to day 14 and 3 mg/kg, ip qd on day 15 to day 18 measured on day 19. Type of data set: functional.
The subject of data set [13] is Mus musculus. The experiment in a line: Toxicity in human SW620 cells xenografted BALB/c nu/nu mouse assessed as change in body weight at 1 mg/kg, ip qd for 11 days followed by 2 mg/kg, ip qd on day 12 to day 14 and 3 mg/kg, ip qd on day 15 to day 18 measured on day 20 (reference value: 1.1 g). It is filed as organism-based, SW-620. To be noted: in vivo, 264 h.
Data set [14] has as its system Mus musculus. The experiment in a line: Toxicity in human NCI-H23 cells xenografted BALB/c nu/nu mouse assessed as change in body weight at 1 mg/kg, ip qd for 11 days followed by 2 mg/kg, ip qd on day 12 to day 14 and 3 mg/kg, ip qd on day 15 to day 18 measured on day 20 (reference value: 1.2 g). Type of data set: organism-based. Particulars: in vivo, 264 h.

Consider `O=C1NC(c2ccccc2)CN1S(=O)(=O)c1ccc2c(c1)CCCN2` (stereo not given), for which the IC50 in data set [1] is greater than 20 µM; in data set [2], 7.23 µM; in [3] it was greater than 20 µM; in data set [4] it was 10.4 µM; in [5], greater than 20 µM; in data set [6] it was 4.25 µM.

On to `COC(=O)N1CCCc2cc(S(=O)(=O)N3CC(c4ccccc4)NC3=O)ccc21` (stereo not given), for which the concentration for half-maximal inhibition (IC50) in [1] was 16.5 µM; in data set [2] it was 4.01 µM; in data set [3], 1.15 µM; in data set [4], 3.48 µM; in data set [5], greater than 20 µM; in [6], 2.26 µM.

Turning to `CCOC(=O)N1CCCc2cc(S(=O)(=O)N3CC(c4ccccc4)NC3=O)ccc21` (stereo not given), the IC50 in [1] was 11.2 µM; in data set [2], 2.78 µM; in [3], 0.344 µM; in data set [4], 2.88 µM; in data set [5], greater than 20 µM; in data set [6], 1.43 µM.

On to `CCCOC(=O)N1CCCc2cc(S(=O)(=O)N3CC(c4ccccc4)NC3=O)ccc21` (stereo not given), for which the IC50 in [1] is 3.3 µM; in [2] it was 1.42 µM; in [3], 1.03 µM; in data set [4], 3.92 µM; in data set [5], greater than 20 µM; in data set [6], 2.02 µM.

Take `CC(C)COC(=O)N1CCCc2cc(S(=O)(=O)N3CC(c4ccccc4)NC3=O)ccc21` (stereo not given): the IC50 in [1] was 2.75 µM; in [2], 3.72 µM; in [3], greater than 20 µM; in data set [4], 5.65 µM; in data set [5], 2.38 µM; in data set [6], 1.25 µM.

As for `CCCCOC(=O)N1CCCc2cc(S(=O)(=O)N3CC(c4ccccc4)NC3=O)ccc21` (stereo not given), the IC50 in data set [1] is 4.01 µM; in data set [2], 4.11 µM; in data set [3], greater than 20 µM; in data set [4] it was 9.57 µM; in data set [5] it was 3.68 µM; in data set [6], 2.08 µM.

Turning to `C=CCOC(=O)N1CCCc2cc(S(=O)(=O)N3CC(c4ccccc4)NC3=O)ccc21` (stereo not given), the half-maximal inhibitory concentration (IC50) in data set [1] was found to be 5.05 µM; in [2], 6.58 µM; in data set [3], 4.31 µM; in data set [4], 2.75 µM; in data set [5], 0.473 µM; in data set [6], 0.945 µM.

As for `O=C(OCCCl)N1CCCc2cc(S(=O)(=O)N3CC(c4ccccc4)NC3=O)ccc21` (stereo not given), the IC50 was 8.68 µM in [1]; 2.82 µM in [2]; greater than 20 µM in data set [3]; 9.8 µM in data set [4]; 10.6 µM in [5]; 1.21 µM in data set [6].

Turning to `O=C(CCl)N1CCCc2cc(S(=O)(=O)N3CC(c4ccccc4)NC3=O)ccc21` (stereo not given), the figures for the IC50 in data set [1], in data set [2] and in [5] were 3.46 µM, 11.2 µM and 1.09 µM, respectively.

In the case of `O=C(c1ccccc1)N1CCCc2cc(S(=O)(=O)N3CC(c4ccccc4)NC3=O)ccc21` (stereo not given), the 50% inhibitory concentration (IC50) came to 14.3 µM in [1]; 19.3 µM in data set [2]; 8.14 µM in data set [3]; 8.56 µM in data set [4]; 1.22 µM in [5]; 5.34 µM in data set [6].

As for `O=C1NC(c2ccccc2)CN1S(=O)(=O)c1ccc2c(c1)CCCN2C(=O)C(F)(F)F` (stereo not given), the half-inhibitory concentration (IC50) was 13.1 µM in [1]; 10.7 µM in [2]; greater than 20 µM in data set [3]; 19.6 µM in [4]; greater than 20 µM in [5]; 4.72 µM in data set [6].

Turning to `NC(=O)N1CCCc2cc(S(=O)(=O)N3CC(c4ccccc4)NC3=O)ccc21` (stereo not given), the IC50 in data set [1] was 3.59 µM; in data set [2], greater than 20 µM; in data set [3], 2.54 µM; in [4], greater than 20 µM; in data set [5], 3.66 µM; in data set [6], 12.3 µM.

For the compound `O=C(CCl)NC(=O)N1CCCc2cc(S(=O)(=O)N3CC(c4ccccc4)NC3=O)ccc21` (stereo not given), the Activity in data set [7] was -0.6 g; in data set [9], 1 g. For the same compound, the IC50 was 2.54 µM in [1]; 9.9 µM in data set [2]; 0.449 µM in [3]; 6.14 µM in data set [4]; 0.515 µM in data set [5]; 3.87 µM in data set [6]. Moreover, the inhibition in vivo at 65 mg/kg worked out at 67% in data set [8] and 58.5% in data set [10].

`O=C(NC1CCCCC1)N1CCCc2cc(S(=O)(=O)N3CC(c4ccccc4)NC3=O)ccc21` (stereo not given): the Activity in [7] was found to be 1.6 g; in data set [9], 2 g. Further, the IC50 in [1] is 8.92 µM; in data set [2] it was 3.89 µM; in data set [3], 0.231 µM; in [4] it was 1.84 µM; in [5], 0.813 µM; in data set [6], 8.16 µM. In addition, the inhibition in vivo at 65 mg/kg in [8] was determined as 72.6%; in [10] it was 65.2%.

As to `CC1(c2ccccc2)CN(S(=O)(=O)c2ccc3c(c2)CCCN3C(=O)C(F)(F)F)C(=O)N1` (stereo not given), the IC50 in data set [1], in data set [2], in data set [3], in data set [4], in [5] and in data set [6] was greater than 20 µM in each case.

For the compound `CSc1ccc(NC(=O)N2CCCc3cc(S(=O)(=O)N4CC(C)(c5ccccc5)NC4=O)ccc32)cc1` (stereo not given), the concentration for half-maximal inhibition (IC50) in data set [2], in [3], in data set [4], in data set [5] and in [6] was greater than 20 µM throughout.

As to `COc1ccc(NC(=O)N2CCCc3cc(S(=O)(=O)N4CC(C)(c5ccccc5)NC4=O)ccc32)cc1` (stereo not given), the IC50 is greater than 20 µM in data set [2]; 5.3 µM in data set [3]; 9.47 µM in data set [4]; 12.4 µM in data set [5]; 15.9 µM in [6].

In the case of `COc1cccc2c1C(=O)c1c(O)c3c(c(O)c1C2=O)C[C@@](O)(C(=O)CO)C[C@@H]3O[C@H]1C[C@H](N)[C@H](O)[C@H](C)O1` [DOXORUBICIN], the figures for the TGI in data set [11] and in data set [12] were 45% and 39.6%, respectively. For the same compound, the 50% inhibitory concentration (IC50) in data set [1] was determined as 4.38 µM; in data set [2] it was 0.4 µM; in data set [4], 2.95 µM; in data set [5], 0.198 µM; in data set [6], 0.338 µM. The Activity in data set [13] is on record as -2.3 g; in [14], -1.6 g.

Regarding `O=C(Nc1ccc(Cl)cc1)NS(=O)(=O)c1ccc2c(c1)CCC2` [SULOFENUR], the 50% inhibitory concentration (IC50) in data set [1] is 31.4 µM; in data set [2], 23.1 µM; in data set [3] it was greater than 20 µM; in data set [4], 78.2 µM; in data set [5], 19.2 µM; in [6] it was greater than 100 µM.
